In article PMC9617675 (Antiviral Research, 2022):
Values joined by “and” are separate entries in the source; they are usually repeats but may differ in a detail not shown here. Identical values can stand only once. Like-named read-outs stand apart in the source and are kept apart here.

What was measured:
in vitro = settings: African green monkey
[1] = system: SARS-CoV-2 B.1.351 (Beta); assay type: cell-based; settings: Vero E6 cells, mean ± SD
[2] = healthy human; ref NCT05197179 and NCT04766931; cited from earlier work
[3] = system: SARS-CoV-2 (2019-nCoV-WIV04); assay type: cell-based; settings: Vero E6
[4] = system: SARS-CoV-2 B.1.617.2 (Delta); assay type: cell-based; settings: Vero E6 cells, mean ± SD
[5] = system: SARS-CoV-2 B.1.1.7 (Alpha); assay type: cell-based; settings: Vero E6 cells, mean ± SD
SARS-CoV-2 = assay: Time of addition assay in Vero E6 cells; assay type: cell-based; settings: 2 μM, 10 μM, 1 μM + P-gp inhibitor; entry, post entry and full-time
[6] = system: SARS-CoV-2 wild-type (2019-nCoV-WIV04); assay type: cell-based

Structure (SMILES) | CC50 (in vitro) | CC50 (Vero E6 cells; CCK8, 24 h) | CC50 (Vero E6 cells; CCK8, with P-gp inhibitor CP-100356) | EC50 [1] | EC90 [1] | safety and tolerability [2] | EC50 ([3]; 10% human serum) | EC50 ([3]; 20% human serum) | EC50 ([3]; 30% human serum) | EC50 ([3]; 40% human serum) | EC50 ([3]; 50% human serum) | EC50 [4] | EC90 [4] | EC50 [5] | EC90 [5] | antiviral activity in time of addition assay (SARS-CoV-2) | EC50 [6] | EC90 [6]
CCN(CC)CCCC(C)Nc1ccnc2cc(Cl)ccc12 (stereo not drawn) [Chloroquine phosphate] | > 100 µM |  |  |  |  |  |  |  |  |  |  |  |  |  |  |  |  | 
O=C[C@H](C[C@@H]1CCNC1=O)NC(=O)[C@H](CC1CCCCC1)NC(=O)c1cc2ccccc2[nH]1 [FB2001] |  | 243 µM and 274 µM | 142 µM | 0.28 ± 0.11 µM | 0.57 ± 0.21 µM | good safety and tolerability | 1.1 µM | 1.91 µM | 2.57 µM | 2.15 µM | 2.4 µM | 0.27 ± 0.05 µM | 0.81 ± 0.2 µM | 0.39 ± 0.01 µM | 0.75 ± 0.01 µM | potent antiviral activities under all conditions | 0.42 ± 0.08 µM | 1.36 ± 1.73 µM
CC(C)(C)[C@H](NC(=O)C(F)(F)F)C(=O)N1C[C@H]2[C@@H]([C@H]1C(=O)N[C@H](C#N)C[C@@H]1CCNC1=O)C2(C)C [PF-07321332, reference compound] |  |  |  | 0.49 ± 0.06 µM | 1.74 ± 0.26 µM |  |  |  |  |  |  | 0.78 ± 0.21 µM | 1.89 ± 0.1 µM | 0.82 ± 0.02 µM | 1.54 ± 0.02 µM |  |  | 
